According to patent publication US8753666B2, “Punctal plugs and methods of delivering therapeutic agents” (Alcon Research, Ltd., priority 2007, dated 2014):

Assay: Release of AL-6598 from silicone dies of three sizes in PBS at 37° C.
Type: physicochemical
Conditions: silicone die containing 10% AL-6598, 10x10x1 mm, 10x5x1 mm and 5x5x1 mm, FIG. 8
Experimental: To study the effect of surface area on the release of prostaglandin from a silicone matrix, prostaglandin release from silicone dies of three different sizes was measured. The largest silicone die measured 10 mm×10 mm×1 mm. A ½ size device (10 mm×5 mm×1 mm) and a ¼ size device (5 mm×5 mm×1 mm) were also used in this study. Each silicone die contained 10% AL-6598, which is a DP class prostaglandin analogue. The silicone die were placed in phosphate buffered saline (PBS) at 37° C. and the amount of AL-6598 released was measured.

CC(C)OC(=O)COC/C=C\C[C@@H]1[C@@H](CC[C@@H](O)C2CCCCC2)[C@H](O)C[C@H]1Cl [AL-6598]
release of AL-6598 from silicone die (effect of surface area): dependent on the size of the silicone die with the larger surface area resulting in the more rapid drug release
